Laboratory results: patent US11291705B2, “Use of caspase-3 inhibitors and caspase-3 activators in the manufacture of medicament for treating cancer and wound healing” (Technion Research & Development Foundation Limited, priority 2016, dated 2022)
“Also recorded” adds a separate entry of the source.

Assays:
[1] = tested on: murine melanoma cell line B16F10; experiment: B16F10 melanoma tumors in mice
Text: FIG. 21E—Resected tumors stained for the proliferative marker Ki67 (red). […] Denotation: CP3, Caspase-3. ** (P<0.01), *** (P<0.001).
FIG. 22C—A histogram displaying quantification of tumor weight (mg) in treated (with Ivachtin) and non-treated (DMSO) animals. […] FIG. 22E—A histogram depicting quantification of Ki67^+ melanoma cells in vivo after treatment with Ivachtin. […] FIG. 22G—A histogram depicting quantification of TUNEL^+ melanoma cells. Denotation: CP3, Caspase-3. Scale bars: 10 μm (FIGS. 22D and 22F). * (P<0.05).

sebaceous gland (SG) = experiment: Sebaceous gland (SG) size and cell proliferation in mice injected subcutaneously with caspase-3 inhibitors or activators; format: in vivo; conditions: for SG size: eight week old mice; for SG size / cell proliferation / proliferative rates in the SG: subcutaneous injection for 7 days; for cell proliferation / proliferative rates in the SG / caspase-3 activation in the SG: mice; for caspase-3 activation in the SG: subcutaneous injection for seven days
Method: Immunofluorescence—Skins were embedded in OCT, frozen, sectioned, and fixed in 4% paraformaldehyde. Tail samples were treated with 5 mM EDTA for 4 hours at 37° C. to separate skin epithelium from dermis and fixed in formal saline for 2 hours at room temperature. Dorsal samples were treated with 5 mM EDTA for 6 hours at 37° C. to separate skin epithelium from dermis and fixed in formal saline for 1 hour at room temperature. Samples were blocked for 2 hours in Blocking buffer consisting of 10% Goat serum, 2% BSA, 0.2% Triton-X. Primary antibodies were diluted in blocking buffer and tissue/sections were incubated overnight at 4° C. Whole mounts or sections were washed at least 3 times with PBS. Secondary antibodies were incubated for 1 hour at room temperature followed by 4 washes with PBS. The following primary antibodies were used: YAP (Rabbit, 1:100, Cell Signalling, Mouse 1:100 Santa Cruz), pYAP (Rabbit, 1:100 Cell Signalling), α-E-Catenin (Rabbit, 1:100, Cell Signalling), Ki67 (Rabbit, 1:100, Abcam; Rat, 1:100, eBioscience), CD34 (Rat, 1:100, eBioscience), K15 (Mouse, 1:100, Thermo, Chicken, 1:1000, Abcam), Sox9 (Rabbit, 1:100, Millipore, Goat, 1:50, Santa Cruz). Cleaved-Caspase-3 (Rabbit, 1:100, Cell signalling), Phalloidin (1:250, Life Technologies). TUNEL was performed using ApopTag TdT (Millipore). […] Analysis was performed on Zeiss LSM 880 confocal microscope.

YAP [2] = experiment: YAP nuclear translocation and pYAP levels in EGFPhigh SGPZ cells; format: cell-based, mice; conditions: immunoblot
Method: Cell culture—The HaCaT and HEK293 cell lines were cultured in DMEM medium supplemented with 10% FBS, 1% P/S (Pen/Strep) and 1% L-glutamine. Integrin α6^+CD34^+ HFSCs and integrin α6^+CD34^−EGFP^high SGPZ cells were isolated and cultured in HFSC media on sustaining J2 feeder cells. Serum was chelated for a calcium concentration of 50 μM. […] Cells were fixed in 4% PFA for 10 minutes for immunofluorescence analysis or harvested for protein or RNA extraction.
Given that Caspase-3 inhibition hindered cell number and proliferation in vitro the present inventors next examined whether this was mediated via YAP in EGFP^high SGPZ cells using K15^+ SGPZ cells. […] Similar findings as to effect of caspase-3 inhibition on YAP activation and proliferation were also obtained in HaCaT and Hek293E3 cells (FIGS. 3J-K, FIGS. 11B-F).

human melanoma cells = experiment: GFP-infected human melanoma cells injected into recipient mice; conditions: mouse
Method: FIG. 15A—Melanoma cell were injected into recipient mice. […] Representative image 6 days after first treatment. FIG. 15B—quantification of tumor development indicates inhibition of tumor size in response to caspase-3 inhibition. FIG. 15C—Extracted tumors were analyzed for proliferation using the Ki67 marker and the presence of GFP^+ melanoma cells. FIG. 15D—Tumors treated with the caspase-3 activator ABT-199 result in a dramatic increase in tumor mass. […] Scale bars, 20 μm.
Examination of the effect of caspase-3 inhibition on melanoma formation in vivo—For this aim human melanoma cells were stably infected with GFP. Cells were then injected into to recipient mice and the effect of administrating caspase-3 inhibitors was monitored.

[3] = tested on: integrin α6+CD34+ HFSCs, HaCaT keratinocytes and Hek293E3 cells; experiment: Expansion of other cell types treated with caspase-3 inhibitors; format: cell-based
Text: In order to examine whether Caspase-3 affects the expansion of other cell types the present inventors isolated integrin α6^+CD34^+ HFSCs from second telogen mice.

B16F10 melanoma cells = B16F10 melanoma cells in vitro: growth, Ki67, pYAP, α-Catenin; format: cell-based
Text: FIG. 23D—A histogram depicting quantifications of 501-A total cells number after treatment with Z-DEVD-fink (SEQ ID NO: 71). FIG. 23E—Images depicting B16F10 melanoma cells stained for Ki67 (red), active cleaved Caspase-3 (green) and nuclear counterstain DAPI (blue). […] Insets are zoom in on specific cells, Denotation: CP3, Caspase-3. Scale bars: 100 μm. ** (P<0.01), *** (P<0.001).
FIG. 24A—Images depicting B16F10 melanoma cells stained for pYAP (red). […] FIG. 24D—Images depicting B16F10 melanoma cells stained for α-Catenin (green). […] FIG. 24E—Immunoblot analysis of proteins isolated from B16F10 melanoma cells using antibodies against pYAP, α-Catenin and α-Tubulin as control.

[4] = tested on: integrin α6+CD34−EGFPhigh SGPZ cells; experiment: Proliferation and expansion of isolated SGPZ cells treated with caspase-3 inhibitors; format: cell-based, mice
Method: Flow Cytometry—SGPZ cell isolation and FACS analysis were performed with K15-EGFP mice and CD34, integrin α6 and Sca1 antibodies. K15-GFP^high cells were isolated from ears and dorsal skin of 8-week old B6.Cg-Tg(Krt1-15-EGFP)2Cot/J mice.

[5] = tested on: excision wounds (1 cm^2) on dorsal skin; experiment: Wound repair of full thickness excision wounds on dorsal skin; format: in vivo, mice
Text: For all wound repair experiments, mice were sedated with isofluorane. Mice were shaved with electric clippers and treated topically with a hair removal cream for a few minutes (Nair). Full-thickness excision wounds (1 cm^2) were generated on the dorsal skins and monitored for wound coverage. PWI, mice were individually housed. At the desired time PWI, mice were euthanized with CO2 and the wounded skins were harvested and either embedded in OCT or prepared for whole mounts as described above or for protein extraction.
Inhibition of caspase-3 impairs wound repair—Since YAP is known to play a chief role in regeneration (34), the present inventors investigated whether in vivo inhibition of Caspase-3 affects the wound repair dynamic by modulating YAP activity. […] Full thickness excision wounds (1.0 cm^2) were generated on the dorsalbacks and monitored for wound coverage. In control mice, three days post wound infliction (PWI) the wound size was reduced by 60% while in Ivachtin and z-DEVD-fink (SEQ ID NO: 71) treated mice, it was reduced by only 10% and 20%, respectively (FIG. 5A and FIG. 5B).

de novo regenerated SGs = experiment: De novo SG regeneration from the wound bed after full thickness excision wounds; format: in vivo, mice; conditions: for size and maturation of regenerated SGs: regenerating skin after wounding
Method: The wound healing process can stimulate de novo regeneration of HFs and SGs (reference 35). As such, the present inventors utilized this model to examine whether caspase-3 activation can drive SG development and maturation. Eight-week old mice were injected with DMSO, PAC-1 or PAC-1 along with Verteporfin for two days prior to wound infliction. Full thickness excision wounds (1 cm^2) were generated on the dorsalskins and skin samples were harvested 20 and 30 days post wound infliction. […] Importantly, YAP inhibition reversed these regenerative phenotypes, leading to a 10-fold reduction in the number of de novo formed SGs (FIGS. 17D and E).

α-Catenin [6] = experiment: α-Catenin levels in vivo after caspase-3 inhibition or activation; set-up: species or system mice; conditions: Western blot and immunofluorescence
Method: TUNEL was performed using ApopTag TdT (Millipore). […] Analysis was performed on Zeiss LSM 880 confocal microscope.
The levels of α-Catenin are known to be a critical factor in the regulation of YAP (27). In low confluent cells, diminished levels of α-Catenin serve as a mechanotransduction mechanism that instructs the nuclear translocation of YAP and drives proliferation (27, 33). […] The present inventors therefore examined the levels of α-Catenin both in vitro and in vivo, by employing both Western blot analysis and immunofluorescence.

α-Catenin [7] = experiment: Immunoblot of α-Catenin in EGFPhigh SGPZ cells; format: cell-based, mice; conditions: extracts from EGFPhigh SGPZ cells
XIAP [8] = experiment: XIAP expression in treated mice; format: in vivo; conditions: for XIAP levels: treated mice
Text: In Drosophila, Yorkie (Yki) the homolog of YAP directly regulates the transcription of Death-associated inhibitor of apoptosis 1 (Diap1), which is the functional equivalent of XIAP [Fuchs, Y. & Steller, H. Programmed cell death in animal development and disease. Cell 147, 742-758 (2011); Zhang, L., et al. The TEAD/TEF family of transcription factor Scalloped mediates Hippo signaling in organ size control. Developmental cell 14, 377-387 (2008)]. Therefore, and without being bound by any theory, the present inventors hypothesized that in the SG, XIAP might be transcriptionally regulated by YAP to balance caspase-3 activity. […] Moreover, XIAP protein levels were increased upon caspase-3 activation with PAC-1, but this effect was abolished when YAP was inhibited (FIG. 29D).

YAP [9] = experiment: Nuclear YAP and Ki67 in SGs of mice treated with PAC-1 and/or Verteporfin; format: in vivo
Text: Therefore, the present inventors investigated whether SG homeostasis is governed by YAP activity in a caspase-3 dependent manner. For this aim the present inventors employed the YAP chemical inhibitor, Verteporfin, which is known to inhibit the interaction between YAP and TEAD in the nucleus and block transcriptional activity (reference 42). The present inventor administered Verteporfin either alone or in combination with the caspase-3 activator PAC-1.

XIAP [10] = experiment: XIAP protein and mRNA levels in EGFPhigh SGPZ cells; format: cell-based, mice
Method: RNA extraction, reverse transcription and real-time PCR (RT-PCR)—RNA was isolated using Trizol (Sigma) and up to 2 μg of RNA were subjected to cDNA synthesis (Applied Biosystems). Real time PCR was carried out using the PerfeCTa SYBR Green FastMix (Quanta), with gene-specific primers [RpLp0 […] (SEQ ID NO:50) and […] (SEQ ID NO:51); WTIP […] (SEQ ID NO:52) and […] (SEQ ID NO:53); ErbB4 […] (SEQ ID NO:54) and […] (SEQ ID NO:55); HOXC13 […] (SEQ ID NO:56) and […] (SEQ ID NO:57); HOXA5 […] (SEQ ID NO:58) and […] (SEQ ID NO:59)]. Amplicon levels were analysed in triplicate and quantitated relative to a standard curve comprising cDNA, and values normalized to levels of the housekeeping gene (Rplp0 or Gapdh). Reactions were: 3 minutes at 95° C., then 40 cycles of 10 seconds at 95° C. and 30 seconds at 60° C. with addition of melt curve step: 10 seconds at 95° C., and increments of 0.5° C. every 5 seconds between 65° C. to 95° C.
In Drosophila, Yorkie (Yki) the homolog of YAP directly regulates the transcription of Death-associated inhibitor of apoptosis 1 (Diap1), which is the functional equivalent of XIAP [Fuchs, Y. & Steller, H. Programmed cell death in animal development and disease. Cell 147, 742-758 (2011); Zhang, L., et al. The TEAD/TEF family of transcription factor Scalloped mediates Hippo signaling in organ size control. Developmental cell 14, 377-387 (2008)]. […]

Compound: CC1(C)CCC(CN2CCN(c3ccc(C(=O)NS(=O)(=O)c4ccc(NCC5CCOCC5)c([N+](=O)[O-])c4)c(Oc4cnc5[nH]ccc5c4)c3)CC2)=C(c2ccc(Cl)cc2)C1 [ABT-199]
- tumor volume and weight ([1]; established B16F10 tumors): increased in volume and weight
- proliferation (Ki67) in resected tumors ([1]; mouse, in vivo): higher proliferation; also recorded: high levels of proliferation
- tumor size ([1]; mouse, in vivo): dramatic increase in size
- activated cleaved Caspase-3 in resected tumors ([1]; staining): higher expression
- SG size (sebaceous gland (SG)): significant increase
- cell proliferation / proliferative rates in the SG (sebaceous gland (SG)): significant increase
- caspase-3 activation in the SG (sebaceous gland (SG)): significant increase
- levels of pYAP (YAP [2]): significantly decreased
- tumor expansion by in vivo imaging (human melanoma cells): dramatically expanded
- tumor mass (human melanoma cells; in vivo): two-fold increased

Compound: CC(=O)OCCN1C(=O)c2c(C)nc3ccc(S(=O)(=O)N4CCOCC4)cc3c2C1=O [Ivachtin]
- expansion of cells ([3]; daily treatment): impaired the expansion
- effect on expansion of cells ([3]; not supplemented daily): very limited effect
- phosphorylated YAP-positive cells (pYAP+) (B16F10 melanoma cells; compared to DMSO): significant increases
- growth of B16F10 melanoma cells (B16F10 melanoma cells; continuous presence of inhibitor): hindered
- tumor weight ([1]; established B16F10 tumors): decrease in tumor weight
- YAP positive cells in resected tumors ([1]; mouse, in vivo): significant decreases
- cell death by TUNEL assay in resected tumors ([1]; mouse, in vivo): enhanced cell death
- proliferation (Ki67) in resected tumors ([1]; mouse, in vivo): reduced expression; also recorded: attenuated proliferation
- tumor size ([1]; mouse, in vivo): smaller tumors
- size of the SG, length, width and number of proliferating cells (sebaceous gland (SG); 20 and 30 days post injection): returned to normal
- SG size (sebaceous gland (SG)): decrease in SG size
- cell proliferation / proliferative rates in the SG (sebaceous gland (SG)): impaired proliferative rates; also recorded: significant decrease
- number of cells positive for proliferative markers Ki67 and PCNA ([4]; immunostaining, Ivachtin daily, five days): three-fold decrease
- effect on cell number and colony formation ([4]; not supplemented daily): very limited effect
- cellular expansion (proliferation and cell number) ([4]; supplemented daily): significant impairment
- levels of α-Catenin in wounded skin / invading keratinocytes ([5]; 5-7 days PWI): increased α-Catenin levels
- cleavage of α-Catenin in wounded dorsalskin ([5]; 7 days PWI, Western blot): impairment in cleavage
- number of nuclear YAP and Ki67 cells ([5]; 12 days PWI): decreased number
- wound closure ([5]; FIGS. 19A-F): significant decrease
- effect of combining caspase-3 and YAP inhibition on wound healing ([5]; Ivachtin, Verteporfin or both): no additive effect
- healing at all time points ([5]; daily subcutaneous injection): less efficient
- wound size reduced by ([5]; three days post wound infliction, injected from 2 days prior to wounding): 10%

Compound: C=CCc1cccc(/C=N/NC(=O)CN2CCN(Cc3ccccc3)CC2)c1O [PAC-1]
- number of regenerated de novo SGs (de novo regenerated SGs; 20 and 30 days post wound infliction): striking increase
- size and maturation of regenerated SGs (de novo regenerated SGs): significantly larger and more developed SGs
- levels of α-Catenin (α-Catenin [6]): decreased levels
- SG size (sebaceous gland (SG)): significant increase
- cell proliferation / proliferative rates in the SG (sebaceous gland (SG)): significant increase
- caspase-3 activation in the SG (sebaceous gland (SG)): significant increase
- levels of full length α-Catenin (α-Catenin [7]): decreased levels
- ~90 kDa and ~85 kDa α-Catenin bands (cleaved) (α-Catenin [7]): much higher levels
- number of nuclear YAP and Ki67 cells ([5]; 7 days PWI): increased number
- wound healing compared with control ([5]; PAC-1 injected daily subcutaneously): healed significantly faster than control
- XIAP levels (XIAP [8]): increased
- numbers of nuclear YAP+/Ki67+ cells in SGs (YAP [9]; PAC-1 alone): higher numbers
- XIAP levels (XIAP [10]; EGFPhigh SGPZ cells): increase in XIAP levels
- levels of pYAP (YAP [2]): significantly decreased

Compound: Verteporfin
- size and maturation of regenerated SGs (de novo regenerated SGs): did not develop into mature SGs
- increased repair by PAC1 under YAP inhibition ([5]; PAC1 with VP): could be revered
- PAC-1 induced increase of XIAP protein levels when YAP was inhibited (XIAP [8]; PAC-1 with Verteporfin): abolished
- XIAP levels (XIAP [8]): decrease in XIAP levels
- proliferative effect of PAC-1 (Ki67+ cells in SGs) (YAP [9]; Verteporfin in combination with PAC-1): able to overcome the positive proliferative effect of PAC-1
- nuclear translocation of YAP (YAP [9]; Verteporfin treatment): did not affect
- XIAP mRNA levels, lower compared to control cells (XIAP [10]; RNA from EGFPhigh SGPZ cells): 2 fold
